According to patent US11111251B2, “Positive allosteric modulators of the muscarinic acetylcholine receptor M1” (Vanderbilt University, priority 2016, dated 2021):
Like-named read-outs stand apart in the source and are kept apart here.

Target: T1, human mAChR M1 (Homo sapiens, UniProt P11229)
T1 sequence (P11229 1-460): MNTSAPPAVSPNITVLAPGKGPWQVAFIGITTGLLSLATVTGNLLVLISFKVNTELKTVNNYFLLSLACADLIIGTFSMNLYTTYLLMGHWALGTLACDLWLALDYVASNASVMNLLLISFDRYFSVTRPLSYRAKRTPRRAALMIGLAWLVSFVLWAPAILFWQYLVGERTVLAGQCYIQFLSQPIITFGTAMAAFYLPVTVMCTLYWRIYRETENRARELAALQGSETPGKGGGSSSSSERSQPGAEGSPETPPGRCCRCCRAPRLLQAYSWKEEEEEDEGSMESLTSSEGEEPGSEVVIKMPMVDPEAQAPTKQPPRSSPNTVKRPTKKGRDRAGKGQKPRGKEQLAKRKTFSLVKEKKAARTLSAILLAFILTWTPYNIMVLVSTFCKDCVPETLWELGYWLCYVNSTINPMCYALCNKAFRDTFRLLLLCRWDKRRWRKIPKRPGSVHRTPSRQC
Experiment: mAChR M1 cell-based functional assay: calcium mobilization, positive allosteric modulator mode (increase in EC20 acetylcholine response)
Description: a. Cell Lines Expressing Muscarinic Acetylcholine Receptors
Chinese hamster ovary (CHO-K1) cells stably expressing rat (r)M1 were purchased from the American Type Culture Collection and cultured according to their indicated protocol. CHO cells stably expressing human (h)M2, hM3, and hM5 were described previously (Levey, et al., 1991); hMi and hM4 cDNAs were purchased from Missouri S&T cDNA Resource; rM4 cDNA was provided by T. I. Bonner (National Institutes of Health, Bethesda, Md.). rM2 and rM3 were cloned from a rat brain cDNA library and sequence verified. hMi, rM2, rM3, hM4, and rM4 cDNAs were used to stably transfect CHO-K1 cells purchased from the American Type Culture Collection using Lipofectamine2000. To make stable rM2, hM2, rM3, hM4, and rM4 cell lines for use in calcium mobilization assays, these cells also were stably transfected with a chimeric G-protein (Gqi5) (provided by B. R. Conklin, University of California, San Francisco) using Lipofectamine 2000. rMi, hMi, rM3, hM3, rM5, and hM5 cells were grown in Ham's F-12 medium containing 10% heat-inactivated fetal bovine serum (FBS), 20 mM HEPES, and 50 μg/mL G418 sulfate. rM2-Gqi5, hM2-Gqi5, and hM4-Gqi5 cells were grown in the same medium also containing 500 μg/mL Hygromycin B. Stable rM4-Gqi5 cells were grown in DMEM containing 10% heat-inactivated FBS, 20 mM HEPES, 400 μg/mL G418 sulfate, and 500 μg/mL Hygromycin B.
b. Cell-Based Functional Assay of Muscarinic Acetylcholine Receptor Activity
For high throughput measurement of agonist-evoked increases in intracellular calcium, CHO-K1 cells stably expressing muscarinic receptors were plated in growth medium lacking G418 and hygromycin at 15,000 cells/20 μL/well in Greiner 384-well black-walled, tissue culture (TC)-treated, clear-bottom plates (VWR). Cells were incubated overnight at 37° C. and 5% CO2. The next day, cells were washed using an ELX 405 (BioTek) with four washes (80 μL) of assay buffer then aspirated to 20 μL. Next, 20 μL of 16 μM Fluo-4/acetoxymethyl ester (Invitrogen, Carlsbad, Calif.) prepared as a 2.3 mM stock in DMSO and mixed in a 1:1 ratio with 10% (w/v) Pluronic F-127 and diluted in assay buffer was added to the wells and the cell plates were incubated for 50 min at 37° C. and 5% CO2. Dye was removed by washing with the ELX 405 (four […], washes of assay buffer) then aspirated to 20 μL. Compound master plates were formatted in an 11 point CRC format (1:3 dilutions) in 100% DMSO with a starting concentration of 10 mM using the BRAVO liquid handler (Agilent). Test compound CRCs were then transferred to daughter plates (240 nL) using the Echo acoustic plate reformatter (Labcyte, Sunnyvale, Calif.) and then diluted into assay buffer (40 μL) to a 2× stock using a Thermo Fisher Combi (Thermo Fisher Scientific, Waltham, Mass.).
Calcium flux was measured using the Functional Drug Screening System (FDSS) 6000 (Hamamatsu Corporation, Tokyo, Japan) as an increase in the fluorescent static ratio. Compounds were applied to cells (20 μL, 2×) using the automated system of the FDSS 6000 at 4 s into the 300 s protocol and the data were collected at 1 Hz. At 144 s into the 300s protocol, 10 μL of an EC20 concentration of the muscarinic receptor agonist acetylcholine was added (5×), followed by the addition of 12 μL an EC80 concentration of acetylcholine at the 230 s time point (5×). Agonist activity was analyzed as a concentration-dependent increase in calcium mobilization upon compound addition. Positive allosteric modulator activity was analyzed as a concentration-dependent increase in the EC20 acetylcholine response. Antagonist activity was analyzed as a concentration-dependent decrease in the EC80 acetylcholine response. Concentration-response curves were generated using a four-parameter logistical equation in XLfit curve fitting software (IDBS, Bridgewater, N.J.) for Excel (Microsoft, Redmond, Wash.) or Prism (GraphPad Software, Inc., San Diego, Calif.).

[1] = Table 1, mAChR M1 cell-based functional assay, PAM mode, species not given, read-out: EC50

Row | Compound | EC50 [1] | also measured
1 | 7-[[6-(1-methylpyrazol-4-yl)-3-pyridyl]methyl]-N-tetrahydropyran-4-yl-thieno[3,2-b]pyridine-5-carboxamide [Compound 301] |  | Human M1 Emax (%) (Table 2, human M1): 71.87%; EC50 (Table 2, human M1, read-out: Human M1 EC50): 0.0423 µM
2 | Cc1ccc(Cc2cc(C(=O)N[C@H]3CCCC[C@@H]3O)nc3ccsc23)cn1 [Compound 1, N-((1S,2S)-2-Hydroxycyclohexyl)-7-((6-methylpyridin-3-yl)methyl)thieno[3,2-b]pyridine-5-carboxamide] |  | EC50: 0.087 µM
3 | Cn1cc(-c2ccc(Oc3cc(C(=O)N[C@H]4CCC[C@@H]4O)nc4ccsc34)c(F)c2)cn1 [Compound 6] | > 10 µM | 
4 | Cn1cc(-c2ccc(Oc3cc(C(=O)N[C@H]4CCCCC[C@@H]4O)nc4ccsc34)c(F)c2)cn1 [Compound 9] | > 10 µM | 
5 | Cc1ccc(Oc2cc(C(=O)N[C@@H]3CC[C@H]3O)nc3ccsc23)cn1 [Compound 16] | > 10 µM | 
6 | Cc1ccc(Oc2cc(C(=O)NC3CC(F)C3)nc3ccsc23)cn1 (centres unmarked) [Compound 17, N-(3-fluorocyclobutyl)-7-[(6-methyl-3-pyridyl)oxy]thieno[3,2-b]pyridine-5-carboxamide] |  | EC50: > 10 µM
7 | Cc1ccc(Oc2cc(C(=O)N[C@H]3CCC[C@@H]3O)nc3ccsc23)cn1 [Compound 18, N-[(1S,2S)-2-hydroxycyclopentyl]-7-[(6-methyl-3-pyridyl)oxy]thieno[3,2-b]pyridine-5-carboxamide] | > 10 µM | 
8 | Cc1ccc(Oc2cc(C(=O)NC3CCCCC3)nc3ccsc23)cn1 [Compound 19, N-cyclohexyl-7-[(6-methyl-3-pyridyl)oxy]thieno[3,2-b]pyridine-5-carboxamide] | > 10 µM | 
9 | Cc1ccc(Oc2cc(C(=O)NC3CCOCC3)nc3ccsc23)cn1 [Compound 20, 7-[(6-methyl-3-pyridyl)oxy]-N-tetrahydropyran-4-yl-thieno[3,2-b]pyridine-5-carboxamide] | > 10 µM | 
10 | Cc1ccc(Oc2cc(C(=O)N[C@H]3COCC[C@@H]3O)nc3ccsc23)cn1 [Compound 23, N-[(3S,4S)-4-hydroxytetrahydropyran-3-yl]-7-[(6-methyl-3-pyridyl)oxy]thieno[3,2-b]pyridine-5-carboxamide] | > 10 µM | 
11 | CO[C@H]1CCCC[C@@H]1NC(=O)c1cc(Oc2ccc(C)nc2)c2sccc2n1 [Compound 24, N-[(1S,2S)-2-methoxycyclohexyl]-7-[(6-methyl-3-pyridyl)oxy]thieno[3,2-b]pyridine-5-carboxamide] | > 10 µM | 
12 | Cc1ccc(Oc2cc(C(=O)NC(CO)c3ccccc3)nc3ccsc23)cn1 (centres unmarked) [Compound 27, N-(2-hydroxy-1-phenyl-ethyl)-7-[(6-methyl-3-pyridyl)oxy]thieno[3,2-b]pyridine-5-carboxamide] | > 10 µM | 
13 | Cc1ccc(Oc2cc(C(=O)NC3CCCNC3=O)nc3ccsc23)cn1 (centres unmarked) [Compound 29, 7-[(6-methyl-3-pyridyl)oxy]-N-(2-oxo-3-pipendyl)thieno[3,2-b]pyridine-5-carboxamide] | > 10 µM | 
14 | Cc1ccc(Oc2cc(C(=O)NC(CO)C3CC3)nc3ccsc23)cn1 (centres unmarked) [Compound 30, N-(1-cyclopropyl-2-hydroxy-ethyl)-7-[(6-methyl-3-pyridyl)oxy]thieno[3,2-b]pyridine-5-carboxamide] | > 10 µM | 
15 | Cc1ccc(Oc2cc(C(=O)NCC(O)C(F)(F)F)nc3ccsc23)cn1 (centres unmarked) [Compound 31, 7-[(6-methyl-3-pyridyl)oxy]-N-(3,3,3-trifluoro-2-hydroxy-propyl)thieno[3,2-b]pyridine-5-carboxamide] | > 10 µM | 
16 | Cc1ccc(Oc2cc(C(=O)NCC(C)(C)O)nc3ccsc23)cn1 [Compound 32, N-(2-hydroxy-2-methyl-propyl)-7-[(6-methyl-3-pyridyl)oxy]thieno[3,2-b]pyridine-5-carboxamide] | > 10 µM | 
17 | COCCNC(=O)c1cc(Oc2ccc(C)nc2)c2sccc2n1 [Compound 33, N-(2-methoxyethyl)-7-[(6-methyl-3-pyridyl)oxy]thieno[3,2-b]pyridine-5-carboxamide] | > 10 µM | 
18 | Cc1ccc(Oc2cc(C(=O)NC(C)C(C)(C)CO)nc3ccsc23)cn1 (centres unmarked) [Compound 34, N-(3-hydroxy-1,2,2-trimethyl-propyl)-7-[(6-methyl-3-pyridyl)oxy]thieno[3,2-b]pyridine-5-carboxamide] | > 10 µM | 

Further lines, with some results ahead:

Row | EC50 [1] | Compound | also measured
19 | 2.15 µM | Cn1cc(-c2ccc(Oc3cc(C(=O)N[C@H]4CCCC[C@@H]4O)nc4ccsc34)c(F)c2)cn1 [Compound 2, 7-[2-fluoro-4-(1-methylpyrazol-4-yl)phenoxy]-N-[(1S,2S)-2-hydroxycyclohexyl]thieno[3,2-b]pyridine-5-carboxamide] | 
20 | 4.99 µM | Cn1cc(-c2ccc(Oc3cc(C(=O)NC4CCOCC4)nc4ccsc34)c(F)c2)cn1 [Compound 4, 7-[2-fluoro-4-(1-methylpyrazol-4-yl)phenoxy]-N-tetrahydropyran-4-yl-thieno[3,2-b]pyridine-5-carboxamide] | 
21 | > 10 µM | Cn1cc(-c2ccc(Oc3cc(C(=O)NC4CC[C@H]4O)nc4ccsc34)c(F)c2)cn1 (stereo partly drawn) [Compound 5, 7-[2-fluoro-4-(1-methylpyrazol-4-yl)phenoxy]-N-[(2R)-2-hydroxycyclobutyl]thieno[3,2-b]pyridine-5-carboxamide] | 
22 | 3.26 µM | Cn1cc(-c2ccc(Oc3cc(C(=O)N[C@H]4CCOC[C@@H]4O)nc4ccsc34)c(F)c2)cn1 [Compound 7] | 
23 | 7.79 µM | Cn1cc(-c2ccc(Oc3cc(C(=O)N[C@H]4COCC[C@@H]4O)nc4ccsc34)c(F)c2)cn1 [Compound 8] | 
24 | 4.12 µM | Cn1cc2c(-c3ccc(Oc4cc(C(=O)N[C@H]5CCOC[C@@H]5O)nc5ccsc45)c(F)c3)cccc2n1 [Compound 13, 7-[2-fluoro-4-(2-methylindazol-4-yl)phenoxy]-N-[(3R,4S)-3-hydroxytetrahydropyran-4-yl]thieno[3,2-b]pyridine-5-carboxamide] | 
25 | 4.25 µM | Cn1cc2c(-c3ccc(Oc4cc(C(=O)N[C@H]5COCC[C@@H]5O)nc5ccsc45)c(F)c3)cccc2n1 [Compound 14] | 
26 | 1.14 µM | Cc1ccc(Oc2cc(C(=O)N[C@H]3CCCC[C@@H]3O)nc3ccsc23)cn1 [Compound 21, N-[(1S,2S)-2-hydroxycyclohexyl]-7-[(6-methyl-3-pyridyl)oxy]thieno[3,2-b]pyridine-5-carboxamide] | 
27 | 1.79 µM | Cc1ccc(Oc2cc(C(=O)N[C@H]3CCOC[C@@H]3O)nc3ccsc23)cn1 [Compound 22, N-[(3R,4S)-3-hydroxytetrahydropyran-4-yl]-7-[(6-methyl-3-pyridyl)oxy]thieno[3,2-b]pyridine-5-carboxamide] | 
28 | 0.75 µM | Cc1ccc(Oc2cc(C(=O)N[C@H]3CCCCC[C@@H]3O)nc3ccsc23)cn1 [Compound 25, N-[(1S,2S)-2-hydroxycycloheptyl]-7-[(6-methyl-3-pyridyl)oxy]thieno[3,2-b]pyridine-5-carboxamide] | 
